Assay results published in patent US9670204B2, “Compounds and pharmaceutical compositions thereof for the treatment of inflammatory disorders” (Galapagos NV, priority 2013, dated 2017).

target: hENPP2 (UniProtKB/SwissProt Q13822) (Homo sapiens (Human), UniProt Q13822); assay: hENPP2 biochemical assay, LPC as substrate; details: LPC (palmitoyl 16:0) as substrate
Procedure: The principle of the assay consists in quantifying the released choline with an enzymatic method using choline oxidase and peroxidase. Choline oxydation by choline oxydase releases betaine and peroxide. The latter is quantified in presence of HRP that converts the peroxide detection agent TOOS and 4-aminoantipyrine into quinoneimine dye. The appearance of quinoneimine dye is measured spectrophotometrically at 555 nm and is proportional to the amount of choline released by ENPP2. Inhibition of ENPP2 will result in a decrease of the signal.
Compound IC50 values are determined in a hENPP2 (UniProtKB/SwissProt Sequence ref Q13822) biochemical assay using LPC as substrate.
The enzyme is diluted in 50 mM Tris-HCl pH 8.5, 500 mM NaCl, 5 mM KCl, 10 mM CaCl2, 0.1% fatty acid free BSA in a total volume of 10 μL. the reaction is started by the addition of 10 μL of 150 μM LPC (palmitoyl 16:0) diluted in the same buffer as described above and the mixture is incubated at 37° C. for 30 min. The reaction is terminated and choline quantified by the addition of a 25 μL of a mixture containing 0.6 U/mL of choline oxidase, 0.6 U/mL of peroxydase, 1.8 mM TOOS, 1.2 mM amino-antipyrine, 20 mM EGTA (stop-developer solution) diluted in the buffer described above. […] is read on the Envision after an incubation of 30 min at room temperature (Excitation 555 nm, excitation light=70%).

Compound	IC50
CCc1nc2ccc(C3CCN(C(=O)CNC)CC3)cn2c1N(C)c1nc(-c2ccc(F)cc2)cs1 [Compound 127, 1-(4-(2-ethyl-3-((4-(4-fluorophenyl)thiazol-2-yl)(methyl)amino)imidazo[1,2-a]pyridin-6-yl)piperidin-1-yl)-2-(methylamino)ethanone]	0.5 to 1 µM
CCc1nc2ccc(N3CCN(CC(=O)N4CC(F)C4)CC3)cn2c1N(C)c1nc(-c2ccc(F)cc2)cs1 [Compound 28, 2-(4-(2-ethyl-3-((4-(4-fluorophenyl)thiazol-2-yl)(methyl)amino)imidazo[1,2-a]pyridin-6-yl)piperazin-1-yl)-1-(3-fluoroazetidin-1-yl)ethanone]	0.1 to 0.5 µM
CCc1nc2ccc(C3=CCN(S(C)(=O)=O)CC3)cn2c1N(C)c1nc(-c2ccc(F)c(F)c2)cs1 [Compound 73, 4-(3,4-difluorophenyl)-N-(2-ethyl-6-(1-(methylsulfonyl)-1,2,3,6-tetrahydropyridin-4-yl)imidazo[1,2-a]pyridin-3-yl)-N-methylthiazol-2-amine]	> 1 µM
CCc1nc2ccc(C3CCN(C(=O)CN4CC(F)(F)C4)CC3)cn2c1N(C)c1nc(-c2ccc(F)cc2)cs1 [Compound 131]	0.1 to 0.5 µM
CCc1nc2ccc(C3CCN(C(=O)CCN(C)C)CC3)cn2c1N(C)c1nc(-c2ccc(F)cc2)cs1 [Compound 130, 3-(dimethylamino)-1-(4-(2-ethyl-3-((4-(4-fluorophenyl)thiazol-2-yl)(methyl)amino)imidazo[1,2-a]pyridin-6-yl)piperidin-1-yl)propan-1-one]	0.1 to 0.5 µM
CCc1nc2ccc(C3CCN(C(=O)CCNC)CC3)cn2c1N(C)c1nc(-c2ccc(F)cc2)cs1 [Compound 132, 1-(4-(2-ethyl-3-((4-(4-fluorophenyl)thiazol-2-yl)(methyl)amino)imidazo[1,2-a]pyridin-6-yl)piperidin-1-yl)-3-(methylamino)propan-1-one]	> 1 µM
CCOC(=O)C(C)N1CCN(c2ccc3nc(CC)c(N(C)c4nc(-c5ccc(F)cc5)cs4)n3c2)CC1 (centres unmarked) [Compound 37, ethyl 2-(4-(2-ethyl-3-((4-(4-fluorophenyl)thiazol-2-yl)(methyl)amino)imidazo[1,2-a]pyridin-6-yl)piperazin-1-yl)propionoate]	> 1 µM

Results, then the compound that gave them:

IC50	Compound
> 1 µM	CCc1nc2ccc(C3=CCN(S(C)(=O)=O)CC3)cn2c1N(C)c1nc(-c2ccc(C(F)(F)F)cc2)cs1 [Compound 193, N-(2-ethyl-6-(1-(methylsulfonyl)-1,2,3,6-tetrahydropyridin-4-yl)imidazo[1,2-a]pyridin-3-yl)-N-methyl-4-(4-(trifluoromethyl)phenyl) thiazol-2-amine]
0.5 to 1 µM	CCc1nc2ccc(N3CCN(CC(=O)N4CC(CO)C4)CC3)cn2c1N(C)c1nc(-c2ccc(F)cc2)c(CO)s1 [Compound 146, 2-(4-(2-ethyl-3-((4-(4-fluorophenyl)-5-(hydroxymethyl)thiazol-2-yl)(methyl)amino)imidazo[1,2-a]pyridin-6-yl)piperazin-1-yl)-1-(3-(hydroxymethyl)azetidin-1-yl)ethanone]
0.5 to 1 µM	CCc1nc2ccc(C3CCN(C(=O)CN(C)C)CC3)cn2c1N(C)c1nc(-c2ccc(F)cc2)c(CO)s1 [Compound 153, 2-(dimethylamino)-1-(4-(2-ethyl-3-((4-(4-fluorophenyl)-5-(hydroxymethyl)thiazol-2-yl)(methyl)amino)imidazo[1,2-a]pyridin-6-yl)piperidin-1-yl) ethanone]
0.1 to 0.5 µM	CCc1nc2ccc(N3CCN(CC(=O)N4CC(F)(F)C4)CC3)cn2c1N(C)c1nc(-c2ccc(F)cc2C#N)cs1 [Compound 165, 2-(2-((6-(4-(2-(3,3-difluoroazetidin-1-yl)-2-oxoethyl)piperazin-1-yl)-2-ethylimidazo[1,2-a]pyridin-3-yl)(methyl)amino)thiazol-4-yl)-5-fluorobenzonitrile]
